Results published in patent US8143398B1, “Activity of new N-acylated ciprofloxacin derivatives against faculative intracellular bacteria” (University of South Florida, priority 2010, dated 2012).

How the values were obtained:
[1] = tested on: intracellular Bartonella henselae Houston-1; experiment: Assay for intracellular activity in infected HMEC-1 cells; format: cell-based
Description: HMEC-1 cells were maintained in MCDB131 medium supplemented with 10% FBS, 5% L-glutamine, 10 ng/mL epidermal growth factor, 1 μg/mL hydrocortisone, penicillin/streptomycin and amphotericin B. HMEC-1 cells were infected with Bartonella henselae Houston-1 at a multiplicity of infection (MOI) of 100 for 4 hour in medium without ciprofloxacin-derived compounds. After infection, the cells were washed 2× with PBS and then treated with gentamicin (200 μg/mL) for 1 hour. Infected cells were washed as before and medium containing ciprofloxacin-derived compound was added at concentrations of 0.1 μg/mL, 1.0 μg/mL and 10 μg/mL. Infected cells were then incubated for 24, 48 and 96 hour. Ciprofloxacin-derived compounds were then removed, and the infected cells were washed as before and lysed with 0.1% saponin Lysates were plated on chocolate agar. After incubation for 8 days, CFU's were counted to determine the number of viable intracellular bacteria.

Bartonella strains = experiment: Agar dilution testing (MIC); format: cell-based; settings: growth read after 1 week
Description: Agar was prepared with the N-acyl ciprofloxacin-derived compounds at concentrations of 10 μg/mL, 1.0 μg/mL and 0.1 μg/mL. An equivalent volume of DMSO was added to a control plate. Nine strains of Bartonella were harvested from 4-day-old plates, resuspended in 1.0 mL sterile HIB and adjusted to a McFarland 2.0 turbidity standard. Using a specific template, 12.5 μL of broth suspensions of each Bartonella strain was pipetted onto each of the fluoroquinalone compound-containing chocolate agar plates and the DMSO control plate. After 1 week, the growth of each Bartonella strain was examined and recorded.

| SMILES | activity against intracellular bacteria [1] | MIC (minimal inhibitory concentration) (Bartonella strains) [µg/mL] | decrease in CFUs (intracellular colony forming units) ([1]; infected HMEC cells treated with 1.0 μg/mL for 24 hours) |
| --- | --- | --- | --- |
| CC(=O)N1CCN(c2cc3c(cc2F)c(=O)c(C(=O)O)cn3C2CC2)CC1 [RC4-125] | significant activity against intracellular bacteria | 1.0 to 10.0 | – |
| CCC(C)(C)C(=O)N1CCN(c2cc3c(cc2F)c(=O)c(C(=O)O)cn3C2CC2)CC1 [RC4-143] | significant activity against intracellular bacteria | 0.1 to 0.5 | – |
| CCC(=O)N1CCN(c2cc3c(cc2F)c(=O)c(C(=O)O)cn3C2CC2)CC1 [RC4-147] | significant activity against intracellular bacteria | – | greater than a tenfold decrease |
| CCCC(=O)N1CCN(c2cc3c(cc2F)c(=O)c(C(=O)O)cn3C2CC2)CC1 [RC5-29] | significant activity against intracellular bacteria | – | – |
| CC(C)(C)C(=O)N1CCN(c2cc3c(cc2F)c(=O)c(C(=O)O)cn3C2CC2)CC1 [RC5-32] | significant activity against intracellular bacteria | – | – |
| CC(=O)N1CCN(c2cc3c(cc2F)c(=O)c(C(=O)N2CCN(c4cc5c(cc4F)c(=O)c(C(=O)O)cn5C4CC4)CC2)cn3C2CC2)CC1 [RC5-69] | significant activity against intracellular bacteria | – | – |
